Assay results taken from patent publication US6432688B1, “Amino alcohol dehydrogenase converts keto alcohol to amino alcohol and amino alcohol to keto alcohol” (Daicel Chemical Industries, Ltd., priority 1999, dated 2002).

What was measured:
[1] = test system: L-glutamate dehydrogenase derived from microorganism (Toyobo); assay: Reactivity of L-glutamate dehydrogenase derived from microorganism; type: biochemical; settings: same experiment as Comparison Example 1
Experimental: (§1) Known NAD(H)-dependent amino acid dehydrogenases reportedly act on only keto acids and amino acids as substrates (Experiments of Biochemistry, Vol. 11, ed. by Japan Society of Biochemistry, Amino acid metabolism and biological amine (I) 193-218, J. Org. Chem. 55, 5567, 1990; Fermentation and Industry 40, 301-311, 1982). […] Reactivity of a commercially available alanine dehydrogenase to amino alcohols was examined. Reaction was performed at 25° C. for several min in a reaction solution containing 1 mM NAD^+, 10 mM of each substrate, 0.1 M Tris-HCl buffer (pH 8.0), and 0.02 unit of alanine dehydrogenase (derived from Bacillus stearothermophilius, Seikagaku Corporation). NADH produced was spectroscopically measured at 340 nm.
The same experiment as Comparison Example 1 was conducted using L-glutamate dehydrogenase derived from microorganism (Toyobo), and that derived from bovine liver (Lifetech Oriental).

[2] = test system: amino alcohol dehydrogenase derived from Streptomyces virginiae IFO 12827; assay: Substrate specificity, relative activity to various substrates
Experimental: Based on this reaction, the amino alcohol dehydrogenase activity i n the crude enzyme solution was spectroscopically determined by measuring the change of absorbance at 490 nm. One unit of enzymewas defined as the amount of the enzyme producing 1 μmol formazan in 1 min under the above condition.

[3] = test system: amino alcohol dehydrogenase obtained in Example 7; assay: Enzyme reaction: conversion of substrates, product analysed by GC, HPLC or GC-MS; type: biochemical, Streptomyces virginiae IFO 12827; settings: 0.5 unit enzyme, 25° C., 48 hours; reductive: 10 mM NADH, 0.2M NH4Cl, pH 8.0; oxidative: 10 mM NAD+, pH 9.0
Experimental: The amino alcohol dehydrogenase (0.5 unit) obtained in Example 7 was added to 2 ml of a mixture containing 5 mM hydroxyacetone, 10 mM NADH, 0.2M NH4Cl, 0.1 M Tris-HCl buffer (pH 8.0), and the resulting reaction mixture was incubated at 25° C. for 48 hours. The product was analyzed by gas chromatography with a FID detector (column, TENAX TA (3.2 mm×1 m); injection and detection temperature, […]; N2 flow rate, 50 ml/min; column temperature, gradient from 150 to 180° C. (5° C./min); retained at 180° C. for 10 min). […] The retention time of 2-amino-1-propanol was completely the same as that of the standard compound.
The same reaction system as used in 1) except for using oxalacetic acid as a substrate in place of hydroxyacetone was incubated at 25° C. for 48 hours. The produced amino acid was converted into an o-phthalaldehyde (OPA) derivative by OPA-derivatization method. The derivative was analyzed by high-performance liquid chromatography (column, CAPCELL PAC C18 AG120 (4.6 mm×25 cm, Shiseido); detection, 340 nm; column temperature, 45° C.; mobile phase flow rate, 1 ml/ min; concentration gradient elution, a) 10 mM sodium phosphate buffer (pH 6.8) to b) acetonitrile:10 mM sodium phosphate buffer (pH 6.8) =2:1).
The amino alcohol dehydrogenase (0.5 unit) was added to a mixture of 2 mM 1-phenethylamine, 10 mM NAD^+ and 0.1, M Tris-HCl buffer (pH 9.0), and the resulting reaction solution was incubated at 25° C. for 48 hours. The reaction solution was adjusted to pH 10.0 with NaOH and extracted with an equivalent volume of ethyl acetate.

[4] = test system: amino alcohol dehydrogenase derived from Streptomyces virginiae IFO 12827; assay: Coenzyme dependence; type: biochemical
[5] = test system: amino alcohol dehydrogenase derived from Streptomyces virginiae IFO 12827; assay: Km values in reductive amination and oxidative deamination; type: biochemical
[6] = biological target: T1, alanine dehydrogenase (derived from Bacillus stearothermophilius, Seikagaku Corporation) (Geobacillus stearothermophilus, UniProt P17557); assay: Reactivity of commercially available alanine dehydrogenase (NADH at 340 nm); type: biochemical; settings: 1 mM NAD+, 10 mM substrate, 0.1 M Tris-HCl pH 8.0, 0.02 unit enzyme, 25° C.
T1 construct: purchased Seikagaku Corporation
Experimental: as §1

[7] = Substrate (Amines), TABLE 5 printed a fourth time
[8] = Substrate (Amines), TABLE 5 printed a second time
[9] = Substrate (Amines), TABLE 5 printed a third time
[10] = Substrate (Amino alcohols), activity to serinol as 100%, TABLE 3
[11] = Substrate (Amino alcohols), activity to serinol as 100%, TABLE 3 printed a second time
[12] = reductive amination reaction (pH 7.0, phosphate buffer)
[13] = oxidative deamination reaction (pH 9.0, Tris-HCl buffer)

T1 sequence (P17557 whole entry): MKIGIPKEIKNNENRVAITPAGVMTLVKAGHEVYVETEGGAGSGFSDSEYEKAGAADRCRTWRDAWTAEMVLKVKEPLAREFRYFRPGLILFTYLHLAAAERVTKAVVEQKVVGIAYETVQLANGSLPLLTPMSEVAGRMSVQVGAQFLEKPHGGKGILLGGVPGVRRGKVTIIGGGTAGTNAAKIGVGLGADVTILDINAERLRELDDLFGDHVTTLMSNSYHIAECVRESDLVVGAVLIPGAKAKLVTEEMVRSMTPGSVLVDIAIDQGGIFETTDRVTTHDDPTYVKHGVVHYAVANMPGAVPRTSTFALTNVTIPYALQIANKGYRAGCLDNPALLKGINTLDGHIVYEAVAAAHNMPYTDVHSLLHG

| Compound | Relative activity (%) ([2]; Substrate (Amines), TABLE 5) | Relative activity (%) [2, 7] | Relative activity (%) [2, 8] | Relative activity (%) [2, 9] | Relative activity (%) [2, 10] | Relative activity (%) [2, 11] | further results |
| --- | --- | --- | --- | --- | --- | --- | --- |
| N[C@@H](CCC(=O)O)C(=O)O [L-glutamic acid] | – | – | – | – | – | – | enzyme acts on substrate [1]: acted on |
| CC(N)CCc1ccccc1 (centres unmarked) [1-methyl-3-phenylpropylamine] | 152% | 152% | 152% | 152% | – | – | – |
| CCCCC[C@@H](C)N [(R)-2-aminoheptane] | 91% | 91% | 91% | 91% | – | – | – |
| Nc1ncccc1O [2-amino-3-hydroxypyridine] | – | – | – | – | 136% | 136% | – |
| NCc1ccccc1 [benzylamine] | 134% | 134% | 134% | 134% | – | – | – |
| CSCC[C@H](N)CO [L-(−)-methioninol] | – | – | – | – | 85% | 85% | – |
| CC(C)C[C@H](N)CO [(S)-(+)-leucinol] | – | – | – | – | 105% | 105% | – |
| CCCC(C)N (centres unmarked) [2-aminopentane] | 252% | 252% | 252% | 252% | – | – | – |
| CCCC(N)CO (racemic) [DL-2-amino-1-pentanol] | – | – | – | – | 103% | 103% | – |
| CC(=O)CO [hydroxyacetone] | – | – | – | – | – | – | conversion by the enzyme [3]: production of 2-amino-1-propanol was detected |
| CCCCCCCCN [n-octylamine] | 114% | 114% | 114% | 114% | – | – | – |
| NAD(H) | – | – | – | – | – | – | use as coenzyme / electron acceptor [4]: dependent |
| CCCCN [n-butylamine] | 170% | 170% | 170% | 170% | – | – | – |
| CC(C)(N)CO [2-amino-2-methyl-1-propanol] | – | – | – | – | 115% | 115% | – |
| CCC(N)CC [3-aminopentane] | 270% | 270% | 270% | 270% | – | – | – |
| CC[C@@H](C)N [(R)-2-aminobutane] | 127% | 127% | 127% | 127% | – | – | – |

| Compound | Relative activity (%) ([2]; Substrate (Amines), TABLE 5) | Relative activity (%) [2, 7] | Relative activity (%) [2, 8] | Relative activity (%) [2, 9] | Relative activity (%) [2, 10] | Relative activity (%) [2, 11] | further results |
| --- | --- | --- | --- | --- | --- | --- | --- |
| COS(=O)(=O)[O-].C[n+]1c2ccccc2nc2ccccc21 [PMS, phenazinementasulfate, reference compound] | – | – | – | – | – | – | use as coenzyme / electron acceptor [4]: does not use |
| CC[C@H](C)[C@H](N)CO [isoleucinol] | – | – | – | – | 113% | 113% | – |
| NADH | – | – | – | – | – | – | Km [5, 12]: 22 µM |
| NC1CCCCC1O (centres unmarked) [2-aminocyclohexanol] | – | – | – | – | 113% | 113% | – |
| CCC(N)CO (single isomer, unassigned; (+)) [(+)-2-amino-1-butanol] | – | – | – | – | 109% | 109% | – |
| Cl.N [NH4Cl] | – | – | – | – | – | – | Km [5, 12]: 25000 µM |
| CC(N)c1ccccc1 (centres unmarked) [1-phenethylamine] | – | – | – | – | – | – | conversion by the enzyme [3]: the enzyme converts amine into ketone |
| NC(=O)c1ccc[n+]([C@@H]2O[C@H](COP(=O)([O-])OP(=O)(O)OC[C@H]3O[C@@H](n4cnc5c(N)ncnc54)[C@H](O)[C@@H]3O)[C@@H](O)[C@H]2O)c1 [NAD^+] | – | – | – | – | – | – | Km [5, 13]: 840 µM |
| NADP(H) | – | – | – | – | – | – | use as coenzyme / electron acceptor [4]: does not use |
| NC(CO)CO [serinol] | – | – | – | – | 100% | 100% | Km [5, 13]: 4000 µM |
| CCCCCCN [n-hexylamine] | 173% | 173% | 173% | 173% | – | – | – |
| N[C@H](CO)Cc1ccccc1 [(S)-(−)-2-amino-3-phenyl-1-propanol] | – | – | – | – | 120% | 120% | – |
| C[C@H](N)C(=O)O [L-alanine] | – | – | – | – | – | – | enzyme acts on substrate [6]: acted on |
| CC(C)[C@H](N)CO [(S)-(+)-2-amino-3-methyl-1-butanol] | – | – | – | – | 43% | 43% | – |
| O=C(O)CC(=O)C(=O)O [oxalacetic acid] | – | – | – | – | – | – | conversion by the enzyme [3]: peak of the product, aspartic acid was observed |
| C[C@@H](N)c1ccccc1 [(R)-1-phenethylamine] | 127% | 127% | 127% | 127% | – | – | – |
